Several values for one entry are separate records, joined by “and”; a condition that tells them apart may be missing. Equal values may be shown once.
Tests used:
[1] = Dissociation constant, pKa of the compound; type: physicochemical
Rattus norvegicus = experiment: Dose normalized AUC (0 to t) in rat at 30 mg/kg, po after 6 hrs; type: ADME, organism-based; design: time < 6 hr, dose 30 mg/kg, route oral; conditions: in vivo
[2] = Oral bioavailability in rat at 3 mg/kg; type: ADME, organism-based; conditions: in vivo
[3] = Clearance in rat at 1 mg/kg, iv; type: ADME, organism-based; design: dose 1 mg/kg, route intravenous; conditions: in vivo
[4] = Half life in rat at 1 mg/kg, iv; type: ADME, organism-based; design: dose 1 mg/kg, route intravenous; conditions: in vivo
[5] = Volume of distribution in rat at 1 mg/kg, iv; type: ADME, organism-based; design: dose 1 mg/kg, route intravenous; conditions: in vivo

Row | Compound | pKa [1] | also measured
1 | CC(C)c1cc(Nc2cccc(C#N)c2)ncc1C(=O)NCC1CCOCC1 | 6.02 | –
2 | COc1cccc(Nc2cc(C(C)C)c(C(=O)NCC3CCOCC3)cn2)c1 | 6.02 | –
3 | COc1ccc(Cl)cc1Nc1cc(C(F)(F)F)c(C(=O)NCC2CCC2)cn1 | 2.63 | –
4 | CC(C)c1cc(Nc2ccc(C#N)c(Cl)c2)ncc1C(=O)NCC1CCOCC1 | 6.02 | –
5 | CC(C)CNC(=O)c1cnc(Nc2cccc(Cl)c2)cc1C(C)C | 6.02 | –
6 | CC(C)c1cc(Nc2cccc(Cl)c2)ncc1C(=O)NCC1CCCC1 | 6.02 | –
7 | O=C(NCC1CCOCC1)c1cnc(Nc2cccc(Br)c2)cc1C1CC1 | – | AUC (Rattus norvegicus): 5 kg·min/L
8 | O=C(NCC1CCOCC1)c1cnc(Nc2ccc(Cl)cc2Cl)cc1C(F)(F)F | 2.63 | –
9 | CC(C)c1cc(Nc2ccc(Cl)cc2Cl)ncc1C(=O)NCC1CCOCC1 | 6.02 | –
10 | O=C(NCC1CCOCC1)c1cnc(Nc2cccc(F)c2)cc1C(F)(F)F | 2.63 | –
11 | Cc1cccc(Nc2cc(C(C)C)c(C(=O)NCC3CCC3)cn2)c1 | 6.02 | –
12 | CC(C)c1cc(Nc2cccc(Br)c2)ncc1C(=O)NCC1CCOCC1 | 6.02 | –
13 | Cc1cccc(Nc2cc(C(C)C)c(C(=O)NCC3CCOCC3)cn2)c1 | 6.02 | –
14 | CC(C)(C)c1cc(Nc2ccc(Cl)cc2Cl)ncc1C(=O)NCC1CCOCC1 | – | AUC (Rattus norvegicus): 16 kg·min/L
15 | O=C(NCC1CCOCC1)c1cnc(Nc2cccc(Cl)c2)cc1C(F)(F)F | 2.63 | –
16 | Cc1cc(Cl)ccc1Nc1cc(C(F)(F)F)c(C(=O)NCC2CCOCC2)cn1 | 2.63 | –
17 | CC(C)c1cc(Nc2cccc(C(F)(F)F)c2F)ncc1C(=O)NCC1CCOCC1 | 6.02 | –
18 | CC(C)c1cc(Nc2cccc(Cl)c2)ncc1C(=O)NC1CCOCC1 | 6.02 | –
19 | O=C(NCc1ccc(F)cc1)c1cnc(Nc2cccc(Br)c2)cc1C(F)(F)F | 2.63 | –
20 | CC(C)c1cc(Nc2cccc(Cl)c2)ncc1C(=O)NCC1CCOCC1 | 6.02 | –
21 | COc1ccc(Cl)cc1Nc1cc(C(F)(F)F)c(C(=O)NCC2CCOCC2)cn1 | 2.63 | –
22 | CC(C)c1cc(Nc2cccc(Cl)c2)ncc1C(=O)NCc1ccc(F)cc1 | 6.02 | –
23 | CC(C)c1cc(Nc2cccc(Cl)c2)ncc1C(=O)NCC(C)(C)C | 6.02 | –
24 | O=C(NCC1CCCCC1)c1cnc(Nc2cccc(Cl)c2)cc1C(F)(F)F | 2.63 | –
25 | O=C(NCC1CCOCC1)c1cnc(Nc2cccc(OC(F)(F)F)c2)cc1C1CC1 | – | AUC (Rattus norvegicus): 3 kg·min/L
26 | O=C(NCC1CCCC1)c1cnc(Nc2ccc(Cl)cc2Cl)cc1C(F)(F)F | 2.63 | –
27 | CCC(CC)CNC(=O)c1cnc(Nc2cccc(Cl)c2)cc1C(C)C | 6.02 | –
28 | O=C(NCC1CCOCC1)c1cnc(Nc2ccc(Cl)cc2Cl)cc1C1CC1 | – | bioavailability [2]: 39%; AUC (Rattus norvegicus): 15 kg·min/L; clearance [3]: 14 mL/min/kg and 14 mL/min; half-life [4]: 186 min; Vd [5]: 2.4 L/kg
29 | NC(=O)c1ccc(CNC(=O)c2cnc(Nc3cccc(Cl)c3)cc2C(F)(F)F)cc1 | 2.63 | –

Source: ChEMBL document CHEMBL1139246, “Pyridine-3-carboxamides as novel CB(2) agonists for analgesia” (Bioorg Med Chem Lett, 2009)
